{"source": "patent US20190192521A1", "about": "“Methods of Treating Arid1A-Mutated Cancers With HDAC6 Inhibitors and EZH2 Inhibitors” (The Wistar Institute of Anatomy and Biology, priority 2016, published 2019)", "key": {"[1]": {"test_system": "cells derived from Apc−/−/Pten−/−/Arid1a−/− and Apc−/−/Pten−/− tumours", "assay": "ACY1215 sensitivity of cells derived from mouse endometrioid tumours", "type": "cell-based"}, "[2]": {"test_system": "p53K120Ac in ARID1A-mutated TOV21G cells", "assay": "mitochondrial localization of p53K120Ac (immunofluorescence, cellular fractionation)", "type": "cell-based, human", "details": "1.25 μM", "text": "FIG. 42 illustrates that apoptosis induced by HDAC6 inhibition in ARD1A-mutated cells correlates with mitochondrial localization of p53K120Ac and a decrease in mitochondrial membrane potential. […] Images were captured using confocal microscopy.\nMean of three independent experiments with S.E.M.\nExpression of p53K120Ac, mitochondrial marker TOM20, and total p53 in the indicated fractions was examined by immunoblot. GAPDH expression was used as a loading control.\nImmunofluorescence and immunohistochemical staining was performed as follows. Immunofluorescence was performed after 48 hours as indicated by fixing samples in 4% paraformaldehyde and permeabilizing with 0.5% Triton-X. Samples were incubated with primary antibodies for 2 hours at room temperature, highly cross absorbed secondary antibodies (Invitrogen) for 1 hour at room temperature and mounted with prolong anti-fade reagent (Invitrogen). Immuno-stained cells were imaged using a Leica Confocal microscope. […] Bitler et al. Nat. Med. 2015, 21, 231-238; Bitler et al. Cancer Research 2011, 71, 6184-6194. Expression of the stained markers was scored using a histologic score (H score) as previously described. McCarty, Jr. et al. Cancer research 1986, 46, 4244s-4248s.\nMitochondria were isolated using the Mitochondria Isolation Kit (Thermo Fisher Scientific). […]"}, "[3]": {"test_system": "ARID1A wild-type RMG1 tumors", "assay": "intrabursal orthotopic xenograft, ARID1A wild-type RMG1", "type": "in vivo, mice", "method": "The consecutive sections of tumors dissected from the indicated treatment groups were subjected to immunohistochemical staining for HDAC6, Ki67, cleaved caspase 3 and p53K120AC. Scale bar=100 μm.\nHistological score (H-score) was calculated for 5 separate fields from 6 tumors from 6 individual mice from each of the indicated groups. Error bars represent S.E.M. The p-values were calculated via two-tailed t-test.\nImmunofluorescence and immunohistochemical staining was performed as follows. Immunofluorescence was performed after 48 hours as indicated by fixing samples in 4% paraformaldehyde and permeabilizing with 0.5% Triton-X. Samples were incubated with primary antibodies for 2 hours at room temperature, highly cross absorbed secondary antibodies (Invitrogen) for 1 hour at room temperature and mounted with prolong anti-fade reagent (Invitrogen). […] Expression of the stained markers was scored using a histologic score (H score) as previously described. […]\nThe intrabursal orthotopic xenograft in vivo model was performed as described previously (Bitler et al. Nat. Med. 2015, 21, 231-238; Bitler et al. Cancer Research 2011, 71, 6184-6194). […] Images were analyzed using Live Imaging 4.0 software. At end of the experiments, tumors were surgically dissected and tumor burden was calculated based on tumor weight. Intraperitoneally disseminated tumor nodules were quantified."}, "[4]": {"test_system": "ARID1A-mutated TOV21G and OVISE cells", "assay": "apoptosis (Annexin V, cleaved caspase 3, cleaved PARP p85) in ARID1A-mutated cells", "type": "cell-based, human", "method": "FIG. 10 illustrates the finding that HDAC6 inhibition induces apoptosis in ARID1A-inactivated cells. […] Cells were collected and stained for apoptotic markers Annexin V. Apoptotic cells were quantified. Error bars represent standard error of the mean. The p-value was calculated via a two-tailed t-test.\nFIG. 11 illustrates the results of the experiments of FIG. 10, but examined for apoptotic markers cleaved caspase 3 and cleaved PARP p85 by immunoblot. GAPDH expression was used as a loading control.\nCells were collected, incubated with an Annexin V-FITC antibody and subjected to flow cytometry analysis. Annexin V-positive cells (apoptotic) were measured with FloJo software. Mean of three independent experiments with S.E.M.\nFIG. 78 illustrates percent apoptosis based on Annexin V staining in ARID1A mutated TOV21G cells treated with 1.25 μM ACY1215, 20 μM pan-caspase inhibitor Q-VD-Oph, or a combination for 48 hrs.\nFIG. 79 illustrates percent apoptosis based on Annexin V staining in ARID1A mutated TOV21G cells treated with 1.25 μM ACY1215 for 48 hrs with or without knockdown of caspase 3 or caspase 9.\nFor immunoblotting, protein was isolated as described in Bitler et al. Nat. Med. 2015, 21, 231-238. Briefly, protein was extracted with RIPA buffer (150 mM NaCl, 1% NP40, 0.5% sodium deoxycholate, 0.1% SDS, 50 mM Tris pH 8.0, and 1 mM PMSF). Protein was separated on a SDS-PAGE and transferred to PVDF membrane. For immunoblot of p53 post-translation modifications, cells were treated with a proteasome inhibitor MG132 (10 μM) to stabilize p53 protein.\nAnnexin V and mitochondria membrane potentials were measured as follows. Phosphatidylserine externalization was detected using an Annexin V staining kit (Life Technologies) following the manufacturer's instructions. To measure change in mitochondria membrane potential cells were treated with 200 nM of tetramethylrhodamine, ethyl ester (TMRE; Abcam) for 15 min at 37° C. Annexin V and TMRE-positive cells were detected using the LSR18 and analyzed with the FlowJo software module."}}}
{"smiles": "O=C(CCCCCCNC(=O)c1cnc(N(c2ccccc2)c2ccccc2)nc1)NO", "note": "[rocilinostat, 2-(diphenylamino)-N-(7-(hydroxyamino)-7-oxoheptyl)pyrimidine-5-carboxamide]", "values": [{"measurement": "sensitivity of Apc−/−/Pten−/−/Arid1a−/− tumour cells compared with Apc−/−/Pten−/− tumour cells", "setting": "[1]", "value": "more sensitive"}, {"measurement": "p53K120Ac in the mitochondrial fraction", "setting": "[2]; cellular fractionation", "value": "increase in p53K120Ac in the mitochondrial fraction"}, {"measurement": "co-localization of p53K120Ac and mitochondrial marker TOM20", "setting": "[2]; immunofluorescence", "value": "significant increase in co-localization"}, {"measurement": "growth, tumor burden, dissemination of ARID1A wild-type tumors", "setting": "[3]; 50 mg/kg daily, 3 weeks", "value": "did not significantly affect the growth, tumor burden or dissemination"}, {"measurement": "expression of Ki67, cleaved caspase 3, p53K120Ac (IHC)", "setting": "[3]; ARID1A wild-type tumors", "value": "did not affect the expression of Ki67, cleaved caspase 3, or p53K120Ac"}, {"measurement": "apoptosis induced by the compound after knockdown of Caspase 8", "setting": "[4]", "value": "did not affect the apoptosis"}, {"measurement": "apoptosis induced by the compound after knockdown of caspase 9 or caspase 3", "setting": "[4]; TOV21G, 1.25 μM, 48 hrs", "value": "significantly suppressed the apoptosis"}, {"measurement": "apoptosis: Annexin V positive cells, cleaved caspase 3, cleaved PARP p85", "setting": "[4]; rocilinostat 1.25 μM, 48 hours", "value": "induced apoptosis"}]}
